Data on 42 compounds can be found in the Kinase Knowledgebase extract (Sharma et al. 2016).

Sequence of PIK3CG (human) (P48736 whole entry, looked up): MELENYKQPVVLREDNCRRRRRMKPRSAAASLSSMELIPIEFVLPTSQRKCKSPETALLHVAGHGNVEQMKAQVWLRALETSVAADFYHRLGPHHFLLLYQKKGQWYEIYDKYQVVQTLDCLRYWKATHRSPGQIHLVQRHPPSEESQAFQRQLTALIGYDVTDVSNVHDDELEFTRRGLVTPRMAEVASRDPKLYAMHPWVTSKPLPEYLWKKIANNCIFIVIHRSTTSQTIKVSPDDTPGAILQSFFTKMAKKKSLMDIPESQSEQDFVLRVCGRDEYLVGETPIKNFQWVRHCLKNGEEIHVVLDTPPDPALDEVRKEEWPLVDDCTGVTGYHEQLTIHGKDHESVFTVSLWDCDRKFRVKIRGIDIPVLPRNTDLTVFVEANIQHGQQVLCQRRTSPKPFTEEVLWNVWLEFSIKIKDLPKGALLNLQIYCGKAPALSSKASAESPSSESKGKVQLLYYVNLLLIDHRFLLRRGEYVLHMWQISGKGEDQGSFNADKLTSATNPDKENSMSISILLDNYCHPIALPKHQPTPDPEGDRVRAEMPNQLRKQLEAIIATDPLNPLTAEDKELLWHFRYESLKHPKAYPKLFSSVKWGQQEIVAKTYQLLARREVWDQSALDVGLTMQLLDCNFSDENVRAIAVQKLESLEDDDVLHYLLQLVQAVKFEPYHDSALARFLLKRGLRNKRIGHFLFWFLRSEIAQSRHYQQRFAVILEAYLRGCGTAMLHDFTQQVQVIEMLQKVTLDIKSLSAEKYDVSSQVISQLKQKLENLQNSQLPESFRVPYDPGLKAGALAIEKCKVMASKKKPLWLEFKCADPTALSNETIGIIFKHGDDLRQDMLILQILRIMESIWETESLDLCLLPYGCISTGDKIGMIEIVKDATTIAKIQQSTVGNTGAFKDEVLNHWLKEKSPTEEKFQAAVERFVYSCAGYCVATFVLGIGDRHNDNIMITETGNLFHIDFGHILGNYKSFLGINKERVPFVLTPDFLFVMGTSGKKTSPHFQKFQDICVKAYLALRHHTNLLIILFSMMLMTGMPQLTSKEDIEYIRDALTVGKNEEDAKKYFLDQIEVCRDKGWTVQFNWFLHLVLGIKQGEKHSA

One assay concerns the target PIK3CG (human) (UniProt P48736). As to the kind of experiment: Inhibition of PIK3CG Kinase Activity.
Conditions: not given
As usually defined, the IC50 is the concentration that gives 50% inhibition. High values mean weaker potency, low ones greater potency. `OCc1cccc(-c2nc(N3CCOCC3)c3cnn(C4CCNCC4)c3n2)c1` came in with an IC50 of 510 nM. `Cn1ncc2c(Nc3ccc(C(N)=O)cc3)nc(Nc3ccc(NC(=O)Nc4cccnc4)cc3)nc21` came in with an IC50 of 68 nM. In the case of `COc1ccc(OC)c(Nc2nc3ncccc3nc2NS(=O)(=O)c2ccccc2)c1`, the IC50 was 73 nM. Still for that read-out and setting: in the case of `COc1cc2sc(C(=O)Nc3nn[nH]n3)c(O[C@H]3C[C@H](C)C[C@H](C)C3)c2cc1OC` it was 103 nM; in that of `Cc1cc(NCc2ccccc2)c2nc(N3CCOCC3)cc(=O)n2c1`, greater than 10000 nM; in that of `COc1ccc(OC)c(Nc2nc3ccccc3nc2NS(=O)(=O)c2cccc(C#N)c2)c1`, 430 nM. In the case of `COc1cc(Nc2nc3ccccc3nc2NS(=O)(=O)c2cccc(C(=O)NCCCN(C)C)c2)cc(OC)c1`, the half-inhibitory concentration (IC50) amounted to 30 nM. In general, Kd refers to a measure of binding affinity in units of concentration. In turn, `CC1(C)CCN(C(=O)c2ccc(NC(=O)Nc3ccc(-c4nc(O[C@H]5CCOC5)nc(N5CCOCC5)n4)cc3)cc2)CC1` showed an IC50 of 7.2 nM and a Kd of 6.5 nM. Take `Cc1[nH]c2ccc(Br)cc2c1C=C1Oc2cc(O)cc(O)c2C1=O`: the IC50 worked out at 2220 nM. The same measure, in the same setting: the same measure for `O=C1NC(=S)S/C1=C\c1ccc2ncnc(N3CCC(F)CC3)c2n1`: 2 nM; for `COc1cc2sc(C(=O)Nc3nnn[nH]3)c(OC3C[C@@H](C)C[C@@H](C)C3)c2cc1OC` (stereo partly drawn): 32 nM. The Ki is the equilibrium dissociation constant of an inhibitor or competing ligand from its target. Lower therefore signals higher affinity. In the case of `Cc1cc(NC(=O)CCNC(=O)Nc2cn3cc(Br)ccc3n2)no1`, the Ki stood at 4980 nM. `Oc1cccc(-c2nc(N3CCOCC3)c3[nH]cc(C4CCN(Cc5ccc(Cl)nc5)CC4)c3n2)c1` came in with an IC50 of 1450 nM.

For the compound `COc1cc(Nc2nc3ccccc3nc2NS(=O)(=O)c2ccc(CN(C)C)cc2)cc(OC)c1`, the IC50 worked out at 27 nM.

The compound `COc1cc2sc(C(=O)Nc3nnn[nH]3)c(OCC3(C)COC3)c2cc1OC` yielded an IC50 of 445 nM. Consider `CC(=O)Nc1nc(C)c(-c2csc(NCCC(N)=O)n2)s1`, for which the IC50 worked out at 64 nM. For the compound `Cc1nc(NC(=O)NCCC(=O)OC(C)(C)C)sc1-c1ccncc1`, the IC50 came to 50 nM. `COc1ccc(OC)c(Nc2nc3ccccc3nc2NS(=O)(=O)c2ccc3c(c2)sc(=O)n3C)c1`: the IC50 worked out at 240 nM.

Compound `COC[C@H]1OC(=O)c2coc3c2[C@@]1(C)C1=C(C3=O)[C@@H]2CCC(=O)[C@@]2(C)C[C@H]1O` had an IC50 of 26 nM. Same read-out and setting: the same measure for `CC(C)(C)NS(=O)(=O)c1cncc(-c2ccc3nc(N)cn3n2)c1`: less than 200 nM; for `COc1ccc(-c2ccc3nc(N)cn3n2)cc1OC`: less than 200 nM. In turn, `O=C1NC(=O)/C(=C/c2ccc(-c3cc(F)cc(F)c3O)o2)S1` had an IC50 of 29 nM.

For the compound `Cc1cc(-c2sc(NC(=O)NCC(=O)N(C)C)nc2C)nc([S+](C)[O-])n1` (stereo not drawn), the IC50 is 16 nM. For `COc1cc2c(O[C@@H]3CCC[C@@H](C)C3)c(C(=O)Nc3nn[nH]n3)sc2cc1C`, the concentration for half-maximal inhibition (IC50) turned out to be 24 nM. `O=C1NC(=O)/C(=C/c2ccc3ncn(-c4ccc5c(c4)CCN5S(=O)(=O)CCCN4CCOCC4)c3n2)S1`: the IC50 is 20 nM. `COc1ccc(OC)c(Nc2nc3ccccc3nc2NS(=O)(=O)c2cccnc2)c1` had an IC50 of 56 nM. The compound `CC(C)n1nnc(CCNC(=O)Nc2cn3cc(-c4cnc5ccccc5c4)ccc3n2)n1` came in with an inhibition constant Ki of 570 nM.

With `COc1cc2c(O[C@H]3C[C@@H](C)CC(C)(C)C3)c(C(=O)Nc3nn[nH]n3)sc2cc1C`, the IC50 was 9 nM.

In turn, `CC(C)n1nnc(CCNC(=O)Nc2cn3cc(-c4cncc(F)c4)ccc3n2)n1` showed a Ki of 168 nM. With `CCCn1c(C(=O)Nc2nnn[nH]2)c(-c2ccccc2)c2cc(OC)c(OC)cc21`, the IC50 came out at 4140 nM. On the same count and under the same terms, the same measure for `COc1ccc(OC)c(Nc2nc3ccccc3nc2NS(=O)(=O)c2cn(C)cn2)c1`: 80 nM; for `CC(=O)Nc1nc(C)c(-c2csc(Nc3cccc(-c4nnn[nH]4)c3)n2)s1`: 9 nM; for `COc1cc2sc(C(=O)Nc3nnn[nH]3)c(OC3CCCC[C@H]3C)c2cc1OC` (stereo partly drawn): 101 nM. In turn, `CCN(CC)C(C)=C1C(=O)O[C@H](COC)[C@@]2(C)C1=C(O)C(=O)C1=C2[C@H](OC(C)=O)C[C@]2(C)C(=O)CC[C@@H]12` returned an IC50 of 80 nM. `COc1cc2sc(C(=O)Nc3nnn[nH]3)c(OCC3CCCCCC3)c2cc1OC` returned an IC50 of 36 nM. Compound `CCn1c(C(=O)Nc2nnn[nH]2)c(-c2ccccc2)c2cc(OC)c(OC)cc21` came in with a 50% inhibitory concentration (IC50) of 6600 nM.

Staying with this assay, now noted: concentration not given here.
As a reminder, the inhibition is the share of the control response that was lost under treatment. Low readings indicate a response near the control, high ones a response far below the control. For the compound `O=C1NC(=O)/C(=C/c2ccc(-c3ccc4ccccc4n3)o2)S1`, the inhibition came out at 13%.

The target of the next assay is PIK3CA (human) (UniProt P42336). As to the kind of experiment: Enzyme Assay.
Sequence of PIK3CA (human) (P42336 whole entry, looked up): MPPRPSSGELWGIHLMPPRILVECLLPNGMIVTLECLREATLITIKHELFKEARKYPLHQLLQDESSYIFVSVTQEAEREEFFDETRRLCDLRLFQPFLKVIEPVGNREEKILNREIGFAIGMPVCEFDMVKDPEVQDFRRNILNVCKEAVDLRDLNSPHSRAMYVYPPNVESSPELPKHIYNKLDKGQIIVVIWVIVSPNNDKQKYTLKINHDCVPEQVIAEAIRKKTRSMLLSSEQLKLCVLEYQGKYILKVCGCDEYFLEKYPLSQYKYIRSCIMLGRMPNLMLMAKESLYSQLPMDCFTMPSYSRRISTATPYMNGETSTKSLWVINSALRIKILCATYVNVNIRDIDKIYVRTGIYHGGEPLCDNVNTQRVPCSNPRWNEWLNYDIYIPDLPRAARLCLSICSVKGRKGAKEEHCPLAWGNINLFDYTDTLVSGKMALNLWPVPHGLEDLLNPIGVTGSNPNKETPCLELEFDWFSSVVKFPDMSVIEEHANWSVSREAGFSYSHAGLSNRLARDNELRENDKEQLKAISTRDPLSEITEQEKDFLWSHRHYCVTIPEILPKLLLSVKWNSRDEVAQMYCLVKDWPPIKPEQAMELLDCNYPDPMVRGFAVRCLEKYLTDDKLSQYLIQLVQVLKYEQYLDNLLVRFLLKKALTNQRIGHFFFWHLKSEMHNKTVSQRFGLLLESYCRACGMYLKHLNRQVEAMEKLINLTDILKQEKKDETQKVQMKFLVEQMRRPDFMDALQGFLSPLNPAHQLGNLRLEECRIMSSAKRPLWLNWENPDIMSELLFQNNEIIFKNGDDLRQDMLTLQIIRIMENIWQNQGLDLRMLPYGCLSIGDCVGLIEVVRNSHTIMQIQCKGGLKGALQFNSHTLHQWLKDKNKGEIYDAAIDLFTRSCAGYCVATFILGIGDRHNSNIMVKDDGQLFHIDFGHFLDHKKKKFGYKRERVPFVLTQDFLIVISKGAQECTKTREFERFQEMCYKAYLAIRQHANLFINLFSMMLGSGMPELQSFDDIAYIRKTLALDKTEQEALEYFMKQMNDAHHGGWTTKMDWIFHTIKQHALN
Conditions: not given
Compound `CN1CCN(c2cnc3ccc(-c4cnc(N)c(S(=O)(=O)N(C)C)c4)cc3n2)CC1` had an IC50 of 16 nM. `CN(C)C(=O)c1ccc(Nc2nc(-c3ccc(N)nc3)nc(N3CCOCC3)n2)cc1` had a concentration for half-maximal inhibition (IC50) of less than 1000 nM.

Compound `COc1ncc(-c2ccc3nnc(C#CC(C)(C)O)n3n2)cc1NS(=O)(=O)c1ccc(F)cc1` yielded an IC50 of 32 nM. `Cc1nc(-c2cnc3c(F)cc(-c4cncc(NS(=O)(=O)c5ccccc5)c4)cn23)no1` had a Kd of 7.8 nM.

Take `CCN1CC(C)(C)Oc2nc(N3CCOC[C@@H]3C)nc(-c3ccc(NC(=O)Nc4ccc(C)cn4)cc3)c2C1=O`: the IC50 was determined as 1450 nM.
